Measurements taken from PubChem BioAssay AID2060627 (Molecular Pharmacology Branch, DTP, NCI, 2025).
“And” between values parts separate entries of the source, which are not always exact repeats. Equal values may be shown once. One block for each compound: values may come before it.

Test system: 156681-154-R-J1-PDC complex spheroid viability
Experiment: Anticancer human tumor 156681-154-R-J1-PDC patient-derived melanoma cell line growth inhibition [CLK]
Details: for viability, T/C: stronger effect = lower value
Outline: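 Patient-derived tumor cells grown as complex spheroids with HUVEC endothelial cells and mesenchymal stem cells, treated with drug combinations. Concentrations descend in half-log steps from near clinical Cmax, or from 10 microM if Cmax unknown.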

[1] = curve of first compound, second compound 0.0316 µM
[2] = curve of first compound, second compound 0.1 µM
[3] = curve of first compound, second compound 0.316 µM
[4] = curve of first compound, second compound 1 µM
[5] = curve of first compound, second compound 3.16 µM
[6] = curve of first compound, second compound 10 µM
[7] = second compound 0.0316 µM, first compound 0.0316 µM
[8] = second compound 0.0316 µM, first compound 0.1 µM
[9] = second compound 0.0316 µM, first compound 0.316 µM
[10] = second compound 0.0316 µM, first compound 1 µM
[11] = second compound 0.0316 µM, first compound 3.16 µM
[12] = second compound 0.0316 µM, first compound 10 µM
[13] = second compound 0.1 µM, first compound 0.0316 µM
[14] = second compound 0.1 µM, first compound 0.1 µM
[15] = second compound 0.1 µM, first compound 0.316 µM
[16] = second compound 0.1 µM, first compound 1 µM
[17] = second compound 0.1 µM, first compound 3.16 µM
[18] = second compound 0.1 µM, first compound 10 µM
[19] = second compound 0.316 µM, first compound 0.0316 µM
[20] = second compound 0.316 µM, first compound 0.1 µM
[21] = second compound 0.316 µM, first compound 0.316 µM
[22] = second compound 0.316 µM, first compound 1 µM
[23] = second compound 0.316 µM, first compound 3.16 µM
[24] = second compound 0.316 µM, first compound 10 µM
[25] = second compound 1 µM, first compound 0.0316 µM
[26] = second compound 1 µM, first compound 0.1 µM
[27] = second compound 1 µM, first compound 0.316 µM
[28] = second compound 1 µM, first compound 1 µM
[29] = second compound 1 µM, first compound 3.16 µM
[30] = second compound 1 µM, first compound 10 µM
[31] = second compound 3.16 µM, first compound 0.0316 µM
[32] = second compound 3.16 µM, first compound 0.1 µM
[33] = second compound 3.16 µM, first compound 0.316 µM
[34] = second compound 3.16 µM, first compound 1 µM
[35] = second compound 3.16 µM, first compound 3.16 µM
[36] = second compound 3.16 µM, first compound 10 µM
[37] = second compound 10 µM, first compound 0.0316 µM
[38] = second compound 10 µM, first compound 0.1 µM
[39] = second compound 10 µM, first compound 0.316 µM
[40] = second compound 10 µM, first compound 1 µM
[41] = second compound 10 µM, first compound 3.16 µM
[42] = second compound 10 µM, first compound 10 µM
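Further: spheroids exposed to the agents for seven days.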
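Wherever viability, T/C is given: 100% = DMSO vehicle control viability.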

IC50 (curve of compound): 27 nM and 20.3 nM
Compound: COc1c(OCCCN2CCOCC2)ccc2c3n(c(=NC(=O)c4cnc(N)nc4)nc12)CCN3
viability, T/C (compound 0.00316 µM): 73.2% and 68.2%
viability, T/C (compound 0.01 µM): 69.9% and 67.5%
viability, T/C (compound 0.0316 µM): 45.8% and 39.1%
viability, T/C (compound 0.1 µM): 19.1% and 13.5%
viability, T/C (compound 0.316 µM): 3.62% and 2.73%
viability, T/C (compound 1 µM): 1.16% and 0.46%

IC50 [1]: 1730 nM
IC50 [2]: 1110 nM
IC50 [3]: 1260 nM
IC50 [4]: 1020 nM
IC50 [5]: < 31.6 nM
IC50 [6]: < 31.6 nM
Compound: C=C(F)C(=O)N1CCN(c2nc(OCC3CCCN3C)nc3c2CCN(c2cccc4cccc(Cl)c24)C3)CC1CC#N (stereo not given) + CNC(=O)c1ccc(Nc2nc(OC3CCCC3)c3c(-c4ccc5nc(C)oc5c4)c[nH]c3n2)c(OC)c1
viability, T/C [7]: 70.9%
viability, T/C [8]: 92.6%
viability, T/C [9]: 76.5%
viability, T/C [10]: 87.4%
viability, T/C [11]: 15.2%
viability, T/C [12]: 0.17%
viability, T/C [13]: 45.3%
viability, T/C [14]: 56.5%
viability, T/C [15]: 54.9%
viability, T/C [16]: 59%
viability, T/C [17]: 11.4%
viability, T/C [18]: 2.23%
viability, T/C [19]: 46.7%
viability, T/C [20]: 49.5%
viability, T/C [21]: 77.3%
viability, T/C [22]: 66.5%
viability, T/C [23]: 10%
viability, T/C [24]: 0.09%
viability, T/C [25]: 59.3%
viability, T/C [26]: 53.3%
viability, T/C [27]: 43.9%
viability, T/C [28]: 50.9%
viability, T/C [29]: 3.8%
viability, T/C [30]: 0.09%
viability, T/C [31]: 48.2%
viability, T/C [32]: 33.5%
viability, T/C [33]: 37.1%
viability, T/C [34]: 42.6%
viability, T/C [35]: 2.84%
viability, T/C [36]: 0.11%
viability, T/C [37]: 39.2%
viability, T/C [38]: 37%
viability, T/C [39]: 28.7%
viability, T/C [40]: 40.4%
viability, T/C [41]: 1.02%
viability, T/C [42]: 4.8%

IC50 (curve of compound): 3380 nM and 1260 nM
Compound: COc1ccc([C@@H](O)c2cc(-c3ncnc4cc(N5CCOCC5)ccc34)c(F)cc2Cl)nn1
viability, T/C (compound 0.0316 µM): 109% and 79.3%
viability, T/C (compound 0.1 µM): 80.7% and 73.7%
viability, T/C (compound 0.316 µM): 90.2% and 74.1%
viability, T/C (compound 1 µM): 74.8% and 48.6%
viability, T/C (compound 3.16 µM): 49.6% and 41.3%
viability, T/C (compound 10 µM): 24.8% and 27.6%

Compound: CC1COCCN1c1cc(C2(S(C)(=N)=O)CC2)nc(-c2ccnc3[nH]ccc23)n1 (stereo not given) + CN1CCN(c2cc(C(=O)Nc3cc4cc(-c5cnn(C)c5)ccc4cn3)ccn2)CC1
IC50 [1]: 1200 nM
IC50 [2]: 1110 nM
IC50 [3]: < 31.6 nM
IC50 [4]: < 31.6 nM
IC50 [5]: < 31.6 nM
IC50 [6]: < 31.6 nM
viability, T/C [7]: 94.5%
viability, T/C [8]: 98.7%
viability, T/C [9]: 85%
viability, T/C [10]: 54%
viability, T/C [11]: 25.6%
viability, T/C [12]: 13%
viability, T/C [13]: 88.2%
viability, T/C [14]: 91.1%
viability, T/C [15]: 78.2%
viability, T/C [16]: 53.1%
viability, T/C [17]: 22.6%
viability, T/C [18]: 11.9%
viability, T/C [19]: 22.2%
viability, T/C [20]: 20.3%
viability, T/C [21]: 19.3%
viability, T/C [22]: 18.1%
viability, T/C [23]: 9.6%
viability, T/C [24]: 5.87%
viability, T/C [25]: 0.2%
viability, T/C [26]: 1.01%
viability, T/C [27]: 0.26%
viability, T/C [28]: 1.47%
viability, T/C [29]: 0.89%
viability, T/C [30]: 0.75%
viability, T/C [31]: 0.13%
viability, T/C [32]: 0.38%
viability, T/C [33]: 0.22%
viability, T/C [34]: 0.27%
viability, T/C [35]: 2.37%
viability, T/C [36]: 1.99%
viability, T/C [37]: 0.16%
viability, T/C [38]: 1.25%
viability, T/C [39]: 0.69%
viability, T/C [40]: 1.26%
viability, T/C [41]: 1.36%
viability, T/C [42]: 1.82%

IC50 (curve of compound): < 31.6 nM
Compound: CC(=O)O[C@H]1C(=O)[C@@]2(C)[C@H]([C@H](OC(=O)c3ccccc3)[C@]3(O)C[C@H](OC(=O)[C@H](O)[C@@H](NC(=O)c4ccccc4)c4ccccc4)C(C)=C1C3(C)C)[C@]1(OC(C)=O)CO[C@@H]1C[C@@H]2O
viability, T/C (compound 0.0316 µM): 19.9% and 16%
viability, T/C (compound 0.1 µM): 13.5% and 12.5%
viability, T/C (compound 0.316 µM): 14.8% and 14.5%
viability, T/C (compound 1 µM): 23.2% and 18.2%
viability, T/C (compound 3.16 µM): 26.6% and 27.1%
viability, T/C (compound 10 µM): 26.6% and 32.9%

IC50 (curve of compound): 6800 nM and 7000 nM
Compound: O=c1[nH]cc(F)c(=O)[nH]1
viability, T/C (compound 0.0316 µM): 72.7% and 87.1%
viability, T/C (compound 0.1 µM): 85.4% and 88.9%
viability, T/C (compound 0.316 µM): 84.8% and 79.8%
viability, T/C (compound 1 µM): 91% and 90.6%
viability, T/C (compound 3.16 µM): 81.6% and 80.6%
viability, T/C (compound 10 µM): 34% and 35.9%

IC50 [1]: < 31.6 nM
IC50 [2]: < 31.6 nM
IC50 [3]: < 31.6 nM
IC50 [4]: < 31.6 nM
IC50 [5]: < 31.6 nM
IC50 [6]: < 31.6 nM
Compound: COc1cccc2c1C(=O)c1c(O)c3c(c(O)c1C2=O)CC(O)(C(=O)CO)CC3OC1CC(N)C(O)C(C)O1 (stereo not given) + CNC(=O)c1ccc(Nc2nc(OC3CCCC3)c3c(-c4ccc5nc(C)oc5c4)c[nH]c3n2)c(OC)c1
viability, T/C [7]: 28.9%
viability, T/C [8]: 20.6%
viability, T/C [9]: 2.62%
viability, T/C [10]: 0.17%
viability, T/C [11]: 0.29%
viability, T/C [12]: 2.75%
viability, T/C [13]: 27.2%
viability, T/C [14]: 20%
viability, T/C [15]: 3.42%
viability, T/C [16]: 0.17%
viability, T/C [17]: 0.11%
viability, T/C [18]: 0.1%
viability, T/C [19]: 30.7%
viability, T/C [20]: 18.2%
viability, T/C [21]: 2.21%
viability, T/C [22]: 0.13%
viability, T/C [23]: 0.1%
viability, T/C [24]: 0.32%
viability, T/C [25]: 18.9%
viability, T/C [26]: 9.29%
viability, T/C [27]: 1.41%
viability, T/C [28]: 0.1%
viability, T/C [29]: 1.2%
viability, T/C [30]: 1.16%
viability, T/C [31]: 17.6%
viability, T/C [32]: 6.96%
viability, T/C [33]: 0.58%
viability, T/C [34]: 0.12%
viability, T/C [35]: 0.1%
viability, T/C [36]: 0.08%
viability, T/C [37]: 16.3%
viability, T/C [38]: 6.19%
viability, T/C [39]: 2.01%
viability, T/C [40]: 0.71%
viability, T/C [41]: 0.12%
viability, T/C [42]: 0.11%

Compound: C#Cc1c(F)ccc2cc(O)cc(-c3ncc4c(N5CC6CCC(C5)N6)nc(OCC56CCCN5CC(F)C6)nc4c3F)c12 (stereo not given) + CN1CCN(c2cc(C(=O)Nc3cc4cc(-c5cnn(C)c5)ccc4cn3)ccn2)CC1
IC50 [1]: > 10000 nM
IC50 [2]: > 10000 nM
IC50 [3]: < 31.6 nM
IC50 [4]: < 31.6 nM
IC50 [5]: < 31.6 nM
IC50 [6]: < 31.6 nM
viability, T/C [7]: 100%
viability, T/C [8]: 81.5%
viability, T/C [9]: 97%
viability, T/C [10]: 120%
viability, T/C [11]: 98.2%
viability, T/C [12]: 119%
viability, T/C [13]: 84.4%
viability, T/C [14]: 86.7%
viability, T/C [15]: 92.6%
viability, T/C [16]: 100%
viability, T/C [17]: 95.8%
viability, T/C [18]: 97%
viability, T/C [19]: 29%
viability, T/C [20]: 22.5%
viability, T/C [21]: 25.9%
viability, T/C [22]: 26.7%
viability, T/C [23]: 31.9%
viability, T/C [24]: 20.6%
viability, T/C [25]: 0.31%
viability, T/C [26]: 2.37%
viability, T/C [27]: 0.28%
viability, T/C [28]: 0.23%
viability, T/C [29]: 0.15%
viability, T/C [30]: 1.07%
viability, T/C [31]: 0.15%
viability, T/C [32]: 0.39%
viability, T/C [33]: 0.11%
viability, T/C [34]: 0.49%
viability, T/C [35]: 0.15%
viability, T/C [36]: 0.12%
viability, T/C [37]: 0.19%
viability, T/C [38]: 2.4%
viability, T/C [39]: 0.37%
viability, T/C [40]: 0.17%
viability, T/C [41]: 0.18%
viability, T/C [42]: 0.17%

IC50 (curve of compound): < 0.949 nM
Compound: CC(C)CC(NC(=O)C(Cc1ccccc1)NC(=O)c1cnccn1)B(O)O (stereo not given)
viability, T/C (compound 0.000949 µM): 26.8% and 12.1%
viability, T/C (compound 0.003 µM): 0.63% and 0.17%
viability, T/C (compound 0.00949 µM): 0.23% and 0.71%
viability, T/C (compound 0.03 µM): 0.23% and 2.41%
viability, T/C (compound 0.0949 µM): 0.31% and 0.16%
viability, T/C (compound 0.3 µM): 2.09% and 0.42%

IC50 (curve of compound): 5500 nM and 4990 nM
Compound: CCCS(=O)(=O)Nc1ccc(F)c(C(=O)c2c[nH]c3ncc(-c4ccc(Cl)cc4)cc23)c1F
viability, T/C (compound 0.0316 µM): 90.6% and 79.6%
viability, T/C (compound 0.1 µM): 77.4% and 59.3%
viability, T/C (compound 0.316 µM): 99.6% and 96.6%
viability, T/C (compound 1 µM): 92.4% and 73.8%
viability, T/C (compound 3.16 µM): 85.8% and 83.2%
viability, T/C (compound 10 µM): 11.3% and 6.41%
